In ChEMBL document CHEMBL3588813, “Antifungal Amphiphilic Aminoglycosides” (Medchemcomm, 2014):
Converted amounts (≈) assume the structure as drawn.

Columns and labels:
[1] = tested on: Staphylococcus aureus; experiment: Antimicrobial activity against Staphylococcus aureus ATCC 25923 assessed as inhibition of bacterial growth incubated at 35 degC for 12 to 18 hrs; type: functional
[2] = tested on: Staphylococcus aureus; experiment: Antimicrobial activity against methicillin-resistant Staphylococcus aureus ATCC 33591 assessed as inhibition of bacterial growth incubated at 35 degC for 12 to 18 hrs; type: functional
[3] = tested on: Escherichia coli; experiment: Antimicrobial activity against Escherichia coli ATCC 25922 assessed as inhibition of bacterial growth incubated at 35 degC for 12 to 18 hrs; type: functional
[4] = tested on: Enterococcus faecalis; experiment: Antimicrobial activity against vancomycin-resistant Enterococcus faecalis ATCC 1299 assessed as inhibition of bacterial growth incubated at 35 degC for 12 to 18 hrs; type: functional
[5] = tested on: Pseudomonas aeruginosa; experiment: Antimicrobial activity against Pseudomonas aeruginosa ATCC 27853 assessed as inhibition of bacterial growth incubated at 35 degC for 12 to 18 hrs; type: functional
[6] = tested on: Fusarium graminearum; experiment: Antimicrobial activity against Fusarium graminearum B4-5A using RPMI medium by microbroth dilution assay; type: functional
[7] = tested on: Fusarium graminearum; experiment: Antimicrobial activity against Fusarium graminearum B4-5A using potato dextrose broth as growth medium and diluent; type: functional
[8] = tested on: Staphylococcus aureus; experiment: Antimicrobial activity against Staphylococcus aureus using potato dextrose broth as growth medium and diluent; type: functional
[9] = tested on: Escherichia coli; experiment: Antimicrobial activity against Escherichia coli ATCC 25922 using potato dextrose broth as growth medium and diluent; type: functional
[10] = tested on: Botrytis cinerea; experiment: Antimicrobial activity against Botrytis cinerea using potato dextrose broth as growth medium and diluent; type: functional
[11] = tested on: Curvularia brachyspora; experiment: Antimicrobial activity against Curvularia brachyspora using potato dextrose broth as growth medium and diluent; type: functional
[12] = tested on: Globisporangium ultimum; experiment: Antimicrobial activity against Pythium ultimum using potato dextrose broth as growth medium and diluent; type: functional
[13] = tested on: Verticillium; experiment: Antimicrobial activity against Verticillium spp. using potato dextrose broth as growth medium and diluent; type: functional
[14] = tested on: Microdochium nivale; experiment: Antimicrobial activity against Microdochium nivale using potato dextrose broth as growth medium and diluent; type: functional
[15] = tested on: Rhizopus stolonifer; experiment: Antimicrobial activity against Rhizopus stolonifer using potato dextrose broth as growth medium and diluent; type: functional
[16] = tested on: Cladosporium cladosporioides; experiment: Antimicrobial activity against Cladosporium cladosporioides using potato dextrose broth as growth medium and diluent; type: functional
[17] = tested on: Fusarium oxysporum; experiment: Antimicrobial activity against Fusarium oxysporum using potato dextrose broth as growth medium and diluent; type: functional
[18] = tested on: Ulocladium; experiment: Antimicrobial activity against Ulocladium spp. using potato dextrose broth as growth medium and diluent; type: functional; details: Alternaria sect. Ulocladium
[19] = tested on: Phoma; experiment: Antimicrobial activity against Phoma spp. using potato dextrose broth as growth medium and diluent; type: functional
[20] = tested on: Candida albicans; experiment: Antimicrobial activity against Candida albicans 10231 using potato dextrose broth as growth medium and diluent; type: functional
[21] = tested on: Rhodotorula mucilaginosa; experiment: Antimicrobial activity against Rhodotorula piliminae using potato dextrose broth as growth medium and diluent; type: functional
[22] = tested on: Fusarium graminearum; experiment: Antimicrobial activity against Fusarium graminearum B4-5A infection in wheat assessed as reduction in spikelet infection rate at 5 ug/ml pre-treated 24 hrs before infection; type: functional
[23] = tested on: Fusarium graminearum; experiment: Antimicrobial activity against Fusarium graminearum B4-5A infection in wheat assessed as reduction in spikelet infection rate at 30 ug/ml pre-treated 24 hrs before infection; type: functional
[24] = tested on: Fusarium graminearum; experiment: Antimicrobial activity against Fusarium graminearum […] in wheat assessed as reduction in Fusarium head blight disease incidence at 1080 ug/ml pre-treated 24 hrs before infection; type: functional
[25] = tested on: Fusarium graminearum; experiment: Antimicrobial activity against Fusarium graminearum B4-5A infecrtion in wheat assessed as Fusarium head blight disease incidence at 5 ug/ml pre-treated 24 hrs before infection (reference value: 61%); type: functional
[26] = tested on: Fusarium graminearum; experiment: Antimicrobial activity against Fusarium graminearum B4-5A infecrtion in wheat assessed as Fusarium head blight disease incidence at 30 ug/ml pre-treated 24 hrs before infection (reference value: 61%); type: functional
[27] = tested on: Fusarium graminearum; experiment: Antimicrobial activity against Fusarium graminearum B4-5A infecrtion in wheat assessed as Fusarium head blight disease incidence at 180 ug/ml pre-treated 24 hrs before infection (reference value: 61%); type: functional
[28] = tested on: Fusarium graminearum; experiment: Antimicrobial activity against Fusarium graminearum B4-5A infecrtion in wheat assessed as Fusarium head blight disease incidence at 1080 ug/ml pre-treated 24 hrs before infection (reference value: 61%); type: functional
[29] = Induction of hemolysis in sheep erythrocytes at 313 ug/ml; type: cell-based, Ovis aries, Erythrocyte; details: read-out: Activity
[30] = Induction of hemolysis in sheep erythrocytes at 28 ug/ml; type: cell-based, Ovis aries, Erythrocyte; details: read-out: Activity
[31] = Cytotoxic activity against human C8161.9 cells; type: cell-based
[32] = Cytotoxic activity against mouse NIH/3T3 cells; type: cell-based, NIH3T3
[33] = Selectivity index, ratio of IC50 for human C8161.9 cells to MIC for Saccharomyces cerevisiae
[34] = Selectivity index, ratio of IC50 for mouse NIH/3T3 cells to MIC for Saccharomyces cerevisiae

`CCCCCCCCCC(=O)NC[C@H]1O[C@@H](O[C@@H]2[C@@H](O)[C@H](N)C[C@H](N)[C@H]2O[C@H]2O[C@H](CN)[C@@H](O)[C@H](O)[C@H]2N)[C@H](O)[C@@H]1O[C@H]1O[C@@H](CN)[C@@H](O)[C@H](O)[C@H]1N` showed an MIC [1] of 16 µg/mL (≈ 20.8 µM), an MIC [2] of 125 µg/mL (≈ 163 µM) and an MIC [3] of 32 µg/mL (≈ 41.7 µM). For the same compound, the MIC [4] was 64 µg/mL (≈ 83.3 µM) and the MIC [5] was 16 µg/mL (≈ 20.8 µM).
Work on `CCCCCCCCCCCCCC(=O)NC[C@H]1O[C@@H](O[C@@H]2[C@@H](O)[C@H](N)C[C@H](N)[C@H]2O[C@H]2O[C@H](CN)[C@@H](O)[C@H](O)[C@H]2N)[C@H](O)[C@@H]1O[C@H]1O[C@@H](CN)[C@@H](O)[C@H](O)[C@H]1N` yielded an MIC [1] of 2 µg/mL (≈ 2.43 µM), an MIC [2] of 4 µg/mL (≈ 4.85 µM) and an MIC [3] of 8 µg/mL (≈ 9.71 µM). The MIC [4] was 8 µg/mL (≈ 9.71 µM) and the MIC [5] was 8 µg/mL (≈ 9.71 µM).
Compound `CCCCCCCCCCC(=O)OCC[C@H]1O[C@H](O[C@@H]2[C@@H](O)[C@H](O[C@H]3O[C@H](CN)[C@@H](O)[C@H](O)[C@H]3N)[C@@H](N)C[C@H]2N)[C@H](O)[C@@H](N)[C@@H]1O` has an MIC [6] of 62.5 µg/mL (≈ 93.9 µM).
Work on `CCCCCCCCSCC[C@H]1O[C@H](O[C@@H]2[C@@H](O)[C@H](O[C@H]3O[C@H](CN)[C@@H](O)[C@H](O)[C@H]3N)[C@@H](N)C[C@H]2N)[C@H](O)[C@@H](N)[C@@H]1O` yielded an MIC [6] of 15.6 µg/mL (≈ 24.9 µM).
Compound `Cc1ccc(S(=O)(=O)OCC[C@H]2O[C@H](O[C@@H]3[C@@H](O)[C@H](O[C@H]4O[C@H](CN)[C@@H](O)[C@H](O)[C@H]4O)[C@@H](N)C[C@H]3N)[C@H](O)[C@@H](N)[C@@H]2O)cc1` has an MIC [6] greater than 500 µg/mL.
In the case of `CCCCO[C@H]1[C@H](N)[C@@H](O)[C@@H](O[C@@H]2[C@@H](O)[C@H](O[C@H]3O[C@H](CN)[C@@H](O)[C@H](O)[C@H]3N)[C@@H](N)C[C@H]2N)O[C@@H]1C`, the MIC [7] is reported as greater than 500 µg/mL and the MIC [6] is reported as greater than 500 µg/mL.
Compound `CCCCCCCCCCCCO[C@H]1[C@H](N)[C@@H](O)[C@@H](O[C@@H]2[C@@H](O)[C@H](O[C@H]3O[C@H](CN)[C@@H](O)[C@H](O)[C@H]3N)[C@@H](N)C[C@H]2N)O[C@@H]1C` has an MIC [7] greater than 500 µg/mL and an MIC [6] greater than 500 µg/mL.
Work on `CCCCCCCCO[C@H]1[C@H](N)[C@@H](O)[C@@H](O[C@@H]2[C@@H](O)[C@H](O[C@H]3O[C@H](CN)[C@@H](O)[C@H](O)[C@H]3N)[C@@H](N)C[C@H]2N)O[C@@H]1C` yielded an MIC [8] of 62.5 µg/mL (≈ 108 µM), an MIC [9] of 250 µg/mL (≈ 431 µM) and an MIC [10] of 31.3 µg/mL (≈ 54 µM). It also gave an MIC [11] of 31.3 µg/mL (≈ 54 µM), an MIC [12] of 15.6 µg/mL (≈ 26.9 µM) and an MIC [13] of 15.2 µg/mL (≈ 26.2 µM). The MIC [14] was 3.9 µg/mL (≈ 6.73 µM), the MIC [7] was 7.8 µg/mL (≈ 13.5 µM) and the MIC [15] was 31.3 µg/mL (≈ 54 µM). It also gave an MIC [16] of 31.3 µg/mL (≈ 54 µM), an MIC [17] of 7.8 µg/mL (≈ 13.5 µM) and an MIC [18] of 7.8 µg/mL (≈ 13.5 µM). It also gave an MIC [19] of 31.3 µg/mL (≈ 54 µM), an MIC [20] of 31.3 µg/mL (≈ 54 µM) and an MIC [21] of 7.8 µg/mL (≈ 13.5 µM). The inhibition at 5 µg/mL [22] was 29%, the inhibition at 30 µg/mL [23] was 49% and the inhibition at 1080 µg/mL [24] was 82%. It also gave an Activity [25] of 76%, an Activity [26] of 70% and an Activity [27] of 76%. For the same compound, the Activity [28] was 80%, the MIC [6] was 31.5 µg/mL (≈ 54.3 µM) and the hemolysis at 313 ug/ml [29] was greater than 20%. The hemolysis at 28 ug/ml [30] was 2%, the IC50 ([31]; Homo sapiens) was greater than 250 µg/mL and the Activity ([31]; human) was “Dose-dependent effect”. For the same compound, the IC50 ([32]; Mus musculus, NIH3T3) was greater than 250 µg/mL, the Activity ([32]; mouse, nih3t3) was “Dose-dependent effect” and the “Selectivity Index” value [33] was 10. For the same compound, the “Selectivity Index” value [34] was 10.
With `NC[C@@H]1O[C@H](O[C@H]2[C@@H](O)[C@H](O[C@@H]3[C@@H](O)[C@H](N)C[C@H](N)[C@H]3O[C@H]3O[C@H](CN)[C@@H](O)[C@H](O)[C@H]3N)O[C@@H]2Cn2cc(CNC(=O)c3cc(-c4ccccc4)nc4ccccc34)nn2)[C@H](N)[C@@H](O)[C@@H]1O` the MIC [1] was 8 µg/mL (≈ 8.64 µM) and the MIC [3] was 32 µg/mL (≈ 34.6 µM).
Compound `CCCCCCC(=O)NC[C@H]1O[C@@H](O[C@@H]2[C@@H](O)[C@H](N)C[C@H](N)[C@H]2O[C@H]2O[C@H](CN)[C@@H](O)[C@H](O)[C@H]2N)[C@H](O)[C@@H]1O[C@H]1O[C@@H](CN)[C@@H](O)[C@H](O)[C@H]1N` has an MIC [1] of 2 µg/mL (≈ 2.76 µM), an MIC [2] of 125 µg/mL (≈ 172 µM) and an MIC [3] of 16 µg/mL (≈ 22 µM). It also gave an MIC [4] of no less than 250 µg/mL, an MIC [5] of no less than 250 µg/mL and an MIC [6] of 62.5 µg/mL (≈ 86.1 µM).
